Measurements from patent publication US10947215B2, “Heteroaryl compounds and their use as therapeutic drugs” (Dong-A Socio Holdings Co., Ltd., priority 2015, dated 2021).

Test system: Ba/F3-CDM cells (Ba/F3 transfected with CD8-MerTK)
Experiment: In cell MER kinase assay, Ba/F3-CDM cell proliferation without IL-3 (Celltiter-Glo, GI50)
Format: cell-based, murine
Details: 48 hours, read-out: Cell growth inhibition (GI50)
Protocol: In Cell MER Kinase Assay Using BaF3 Cellular System
To establish an in cell kinase assay for MerTK kinase, the IL-3 dependent Ba/F3 cells of murine lymphoid origin was transfected with CD8-MerTK. […] For a routine cellular assay, Ba/F3-CDM cells were seeded at 2,000 cells per well in 384-well cell culture plate containing DMEM/10% FBS culture media and incubated for 24 hours before addition of compounds pre-diluted in culture media. Following compound treatment, cells were further incubated for 48 hours and the proliferation was measured. To discriminate a Ba/F3 growth inhibition by a specific inhibition of MerTK kinase following compound treatment vs growth inhibition due to a non-specific unintended cytotoxicity of compounds, we routinely carried out control sets of Ba/F3 cells in parallel that grown in IL3-supplemented growth media. In the presence of IL-3, the proliferation of Ba/F3 is no longer dependent on the MerTK activity. Cell growth and proliferation was measured with Celltiter-Glo™ system (Promega, USA) according to the manufacturer's instruction. The half-maximal growth inhibitory concentration (GI50) value was calculated with Prism6.0 software (GraphPad, USA).

Compound | GI50
CN1CCN(Cc2ccc(-c3ccc(CO[C@H]4CCC[C@@H]4NC(=O)c4cc(-c5ccc(CN6CCN(C)CC6)cc5)cnc4N)cc3)cc2)CC1 [Example 368, 2-amino-N-((1S,2S)-2-((4′-((4-methylpiperazin-1-yl)methyl)-[1,1′-biphenyl]-4-yl)methoxy)cyclopentyl)-5-(4-((4-methylpiperazin-1-yl)methyl)phenyl)nicotinamide] | < 100 nM
CN1CCN(Cc2ccc(-c3ccc(CO[C@H]4CCC[C@@H]4NC(=O)c4cc(-c5ccc(CO)cc5)cnc4N)cc3)cc2)CC1 [Example 369, 2-amino-5-(4-(hydroxymethyl)phenyl)-N-((1S,2S)-2-((4′-((4-methylpiperazin-1-yl)methyl)-[1,1′-biphenyl]-4-yl)methoxy)cyclopentyl)nicotinamide] | < 100 nM
Cc1cccc(-c2cnc(N)c(C(=O)N[C@H]3CCC[C@@H]3OCc3ccc(-c4ccc(CN5CCN(C)CC5)cc4)cc3)c2)c1 [Example 370, 2-amino-N-((1S,2S)-2-((4′-((4-methylpiperazin-1-yl)methyl)-[1,1′-biphenyl]-4-yl)methoxy)cyclopentyl)-5-(m-tolyl)nicotinamide] | < 100 nM
CN1CCN(Cc2ccc(-c3ccc(CO[C@H]4CCC[C@@H]4NC(=O)c4cc(-c5ccccc5)cnc4N)cc3)cc2)CC1 [Example 371, 2-amino-N-((1S,2S)-2-((4′-((4-methylpiperazin-1-yl)methyl)-[1,1′-biphenyl]-4-yl)methoxy)cyclopentyl)-5-phenyl nicotinamide] | < 100 nM
CN1CCN(Cc2ccc(-c3ccc(CO[C@H]4CCC[C@@H]4NC(=O)c4cc(-c5ccc(O)cc5)cnc4N)cc3)cc2)CC1 [Example 372, 2-amino-5-(4-hydroxyphenyl)-N-((1S,2S)-2-((4′-((4-methyl-piperazin-1-yl)methyl)-[1,1′-biphenyl]-4-yl)methoxy)cyclopentyl)nicotinamide] | < 100 nM
CN1CCN(Cc2ccc(-c3ccc(CO[C@H]4CCC[C@@H]4NC(=O)c4cc(-c5cccnc5)cnc4N)cc3)cc2)CC1 [Example 375, 6-amino-N-((1S,2S)-2-((4′-((4-methylpiperazin-1-yl)methyl)-[1,1′-biphenyl]-4-yl)methoxy)cyclopentyl)-[3,3′-bipyridine]-5-carboxamide] | < 100 nM
COc1ccc(-c2cnc(N)c(C(=O)N[C@H]3CCC[C@@H]3OCc3ccc(-c4ccc(CN5CCN(C)CC5)cc4)cc3)c2)cc1 [Example 376, 2-amino-5-(4-methoxyphenyl)-N-((1S,2S)-2-((4′-((4-methyl-piperazin-1-yl)methyl)-[1,1′-biphenyl]-4-yl)methoxy)cyclopentyl)nicotinamide] | < 100 nM
CN1CCN(Cc2ccc(-c3ccc(CO[C@H]4CCC[C@@H]4NC(=O)c4cc(-c5ccncc5)cnc4N)cc3)cc2)CC1 [Example 377, 6-amino-N-((1S,2S)-2-((4′-((4-methylpiperazin-1-yl)methyl)-[1,1′-biphenyl]-4-yl)methoxy)cyclopentyl)-[3,4′-bipyridine]-5-carboxamide] | < 100 nM
CC1CCN(Cc2ccc(-c3cnc(N)c(C(=O)N[C@H]4CCC[C@@H]4OCc4ccc(-c5ccc(CN6CCN(C)CC6)cc5)cc4)c3)cc2)CC1 [Example 378, 2-amino-N-((1S,2S)-2-((4′-((4-methylpiperazin-1-yl)methyl)-[1,1′-biphenyl]-4-yl)methoxy)cyclopentyl)-5-(4-((4-methylpiperidin-1-yl)methyl)phenyl)-nicotinamide] | < 100 nM
CN1CCN(Cc2ccc(-c3ccc(CO[C@H]4CCC[C@@H]4NC(=O)c4cc(-c5ccc(CN6CCOCC6)cc5)cnc4N)cc3)cc2)CC1 [Example 379, 2-amino-N-((1S,2S)-2-((4′-((4-methylpiperazin-1-yl)methyl)-[1,1′-biphenyl]-4-yl)methoxy)cyclopentyl)-5-(4-(morpholinomethyl)phenyl)nicotinamide] | < 100 nM
CN1CCN(Cc2ccc(-c3ccc(CO[C@H]4CCC[C@@H]4NC(=O)c4cc(-c5cnn(C6CCOCC6)c5)cnc4N)cc3)cc2)CC1 [Example 380, 2-amino-N-((1S,2S)-2-((4′-((4-methylpiperazin-1-yl)methyl)-[1,1′-biphenyl]-4-yl)methoxy)cyclopentyl)-5-(1-(tetrahydro-2H-pyran-4-yl)-1H-pyrazol-4-vi)nicotinamide] | < 100 nM
CN1CCN(Cc2ccc(-c3ccc(CO[C@H]4CCC[C@@H]4NC(=O)c4cc(-c5ccc(N6CCOCC6)cc5)cnc4N)cc3)cc2)CC1 [Example 381, 2-amino-N-((1S,2S)-2-((4′-((4-methylpiperazin-1-yl)methyl)-[1,1′-biphenyl]-4-yl)methoxy)cyclopentyl)-5-(4-morpholinophenyl)nicotinamide] | < 100 nM
COc1ccc(-c2cnc(N)c(C(=O)N[C@H]3CCC[C@@H]3OCc3ccc(-c4ccc(CN5CCN(C)CC5)cc4)cc3)c2)cc1OC [Example 383, 2-amino-5-(3,4-dimethoxyphenyl)-N-((1S,2S)-2-((4′-((4-methyl-piperazin-1-yl)methyl)-[1,1′-biphenyl]-4-yl)methoxy)cyclopentyl)nicotinamide] | < 100 nM
CN1CCN(Cc2ccc(-c3ccc(CO[C@H]4CCC[C@@H]4NC(=O)c4cc(-c5cc(F)nc(F)c5)cnc4N)cc3)cc2)CC1 [Example 384] | < 100 nM
CN1CCN(Cc2ccc(-c3ccc(CO[C@H]4CCC[C@@H]4NC(=O)c4cc(-c5ccc(F)nc5)cnc4N)cc3)cc2)CC1 [Example 386, 6-amino-6′-fluoro-N-((1S,2S)-2-((4′-((4-methylpiperazin-1-yl)methyl)-[1,1′-biphenyl]-4-yl)methoxy)cyclopentyl)-[3,3′-bipyridine]-5-carboxamide] | < 100 nM
CN1CCN(Cc2ccc(-c3ccc(CO[C@H]4CCC[C@@H]4NC(=O)c4cc(-c5cnn(C(F)(F)C(F)F)c5)cnc4N)cc3)cc2)CC1 [Example 387, 2-amino-N-((1S,2S)-2-((4′-((4-methylpiperazin-1-yl)methyl)-[1,1′-biphenyl]-4-yl)methoxy)cyclopentyl)-5-(1-(1,1,2,2-tetrafluoroethyl)-1H-pyrazol-4-yl)-nicotinamide] | < 100 nM
CCc1cc(CO[C@H]2CNC[C@@H]2NC(=O)c2cc(-c3ccc(C(N)=O)cc3)cnc2N)ccc1C [Example 391, 2-amino-5-(4-carbamoylphenyl)-N-((3S,4S)-4-((3-ethyl-4-methylbenzyl)oxy)pyrrolidin-3-yl)nicotinamide] | > 1000 nM
CCc1cc(CO[C@H]2CNC[C@@H]2NC(=O)c2cc(-c3cccnc3)cnc2N)ccc1C [Example 396, 6-amino-N-((3S,4S)-4-((3-ethyl-4-methylbenzyl)oxy)pyrrolidin-3-yl)-[3,3′-bipyridine]-5-carboxamide] | > 1000 nM
CCc1cc(CO[C@H]2CNC[C@@H]2NC(=O)c2cc(-c3ccc(NS(C)(=O)=O)cc3)cnc2N)ccc1C [Example 401, 2-amino-N-((3S,4S)-4-((3-ethyl-4-methylbenzyl)oxy)pyrrolidin-3-yl)-5-(4-(methylsulfonamido)phenyl)nicotinamide] | > 1000 nM
CCc1cc(CO[C@H]2CNC[C@@H]2NC(=O)c2cc(-c3cnn(C4CCNCC4)c3)cnc2N)ccc1C [Example 412, 2-amino-N-((3S,4S)-4-((3-ethyl-4-methylbenzyl)oxy)pyrrolidin-3-yl)-5-(1-(piperidin-4-yl)-1H-pyrazol-4-yl)nicotinamide] | > 1000 nM
